Assay results from patent US20240368125A1, “NOVEL PYRAZINYL-TRIAZOLE COMPOUNDS AS PESTICIDES” (Bayer Aktiengesellschaft, priority 2021, published 2024).

Tests used:
Assay type in all cases: in vivo
[1] = tested on: larvae of the southern green stink bug (Nezara viridula); test: Nezara viridula spray test; conditions: Nezara viridula, in Hordeum vulgare, 96 h
Method: Nezara viridula—Spray Test
(§1) Solvent: 78.0 parts by weight of acetone • • 1.5 parts by weight of dimethylformamide
(§2) Emulsifier: alkylarylpolyglycol ether
(§3) To produce a suitable preparation of active compound, 1 part by weight of active compound is mixed with the stated amount of solvent, and the concentrate is diluted with water, containing an emulsifier concentration of 1000 ppm, to the desired concentration. Further test concentrations are prepared by dilution with emulsifier containing water.
Barley plants (Hordeum vulgare) are sprayed with a test solution containing the desired concentration of the active ingredient and are infested with larvae of the southern green stink bug (Nezara viridula).
After 4 days mortality in % is determined. 100% means all the stink bugs have been killed; 0% means none of the stink bugs have been killed.

[2] = tested on: larvae of the banded cucumber beetle (Diabrotica balteata); test: Diabrotica balteata spray test; conditions: Diabrotica balteata, 168 h; 100 g/ha (=32 μg/well), wheat seeds, after 7 days; read-out: efficacy (seedlings grown)
In short: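 Efficacy was read 7 days after infesting each unit with 10–20 banded cucumber beetle larvae, as % of seedlings growing like untreated, uninfested controls. Before infestation, wheat seeds germinated 1 day on agar (5 per well) were sprayed with the active ingredient. The active was formulated in acetone/DMF and diluted in water containing emulsifier.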

[3] = tested on: green peach aphid (Myzus persicae); test: Myzus persicae oral test; conditions: 120 h
Method: Solvent: 100 parts by weight acetone
To produce a suitable preparation of active compound, 1 part by weight of active compound is mixed with the stated amount of solvent, and the concentrate is diluted with water to the desired concentration.
50 μL compound solution is filled in microtiter plates and 150 μL IPL41 insect medium (33%+15% sugar) is added to obtain a total volume of 200 μL per well. Afterwards the plates are sealed with parafilm through which a mixed population of the green peach aphid (Myzus persicae) can suck on the compound preparation.
(§4) After 5 days mortality in % is determined. 100% means all aphids have been killed and 0% means none of the aphids have been killed.

[4] = tested on: green peach aphid (Myzus persicae); test: Myzus persicae spray test (MYZUPE); conditions: in Brassica rapa, foliar, 120 h
Method: Myzus persicae—Spray Test
Solvent: 78.0 parts by weight acetone • 1.5 parts by weight dimethylformamide
as §2
as §3, with “solvents” for “solvent,”, “and” for “and the concentrate”
Chinese cabbage (Brassica pekinensis) leaf disks infected with all instars of the green peach aphid (Myzus persicae), are sprayed with a preparation of the active ingredient of the desired concentration.
as §4
Myzus persicae—Spray Test (MYZUPE
After the specified period of time, mortality in % is determined. 100% means all aphids have been killed and 0% means none of the aphids have been killed.

[5] = tested on: Rhipicephalus (Boophilus) microplus larvae (strain Parkhurst, resistant against synthetic pyrethroids); test: Rhipicephalus (Boophilus) microplus in-vitro contact test, larval cattle tick; conditions: Rhipicephalus microplus; 1 μg/cm^2 (=100 g/ha), after 48 hours; read-out: efficacy (larvae dead or moribund)
In short: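 Compound in acetone coated on glass tube inner walls; 900 ppm solution gives 5 μg/cm^2. Pyrethroid-resistant Parkhurst larvae (20-50 per tube) held at 27° C., 85% relative humidity; efficacy assessed after 48 h by scoring negative geotactic behavior after tapping larvae to tube bottom.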

[6] = tested on: brown planthopper (Nilaparvata lugens); test: Nilaparvata lugens spray test; conditions: Nilaparvata lugens, in Oryza sativa, 96 h
Method: Nilaparvata lugens—Spray Test
as §1, §2
as §3, with “solvents” for “solvent,”, “and” for “and the concentrate”
Rice plants (Oryza sativa) are sprayed with a preparation of the active ingredient of the desired concentration and the plants are infested with the brown planthopper (Nilaparvata lugens).
After 4 days mortality in % is determined. 100% means all planthoppers have been killed and 0% means none of the planthoppers have been killed.

[7] = tested on: fall armyworm larvae (Spodoptera frugiperda); test: Spodoptera frugiperda spray test (SPODFR); conditions: in Zea mays, 168 h
In short: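 Compound in acetone/dimethylformamide, diluted with water containing 1000 ppm alkylarylpolyglycol ether emulsifier. Maize leaf sections sprayed, dried, then infested with fall armyworm larvae. Mortality (%) scored after 7 days, 100% meaning all caterpillars killed.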

[8] = tested on: adult brown dog ticks (Rhipicephalus sanguineus); test: Rhipicephalus sanguineus in-vitro contact test, adult brown dog ticks; conditions: Rhipicephalus sanguineus; 1 μg/cm^2 (=100 g/ha), after 48 hours; read-out: efficacy (ticks dead or moribund)
In short: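 Glass tubes are coated with compound dissolved in acetone, a 900 ppm solution yielding 5 μg/cm^2 on the inner surface. Adult ticks (5-10 per tube) are kept on the dry film at room temperature for 48 h, then those unable to escape 45-50° C heat are counted as dead or moribund.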

[9] = tested on: adult cat fleas (Ctenocephalides felis); test: Ctenocephalides felis in-vitro contact test, adult cat flea; conditions: Ctenocephalides felis; 1 μg/cm^2 (=100 g/ha), after 48 hours; read-out: efficacy (fleas dead or moribund)
[10] = tested on: adult engorged female ticks (Rhipicephalus microplus); test: Rhipicephalus (Boophilus) microplus injection test; conditions: 4 μg/tick, after 7 days
Method: Rhipicephalus (Boophilus) Microplus—Injection Test
(§5) Solvent: Dimethyl Sulfoxide
To produce a suitable preparation of active compound, 10 mg of active compound are dissolved in 0.5 mL solvent, and the concentrate is diluted with solvent to the desired concentration.
Five adult engorged female ticks (Rhipicephalus microplus) are injected with 1 μL compound solution into the abdomen. The ticks are transferred into replica plates and incubated in a climate chamber.
After 7 days egg deposition of fertile eggs is monitored. Eggs where fertility is not visible are stored in a climate chamber till hatching after about 42 days. An efficacy of 100% means all eggs are infertile; 0% means all eggs are fertile.

[11] = tested on: adult unfed cat fleas (Ctenocephalides felis); test: Ctenocephalides felis oral test; conditions: 48 h, 100 ppm in citrated cattle blood, after 2 days
Method: Ctenocephalides felis—Oral Test
as §5
To produce a suitable preparation of active compound, 10 mg of active compound are dissolved in 0.5 mL solvent, and the concentrate is diluted with citrated cattle blood to the desired concentration.
Approximately 20 adult unfed cat fleas (Ctenocephalides felis) are placed in a flea chamber whose top and bottom is covered with gauze. A chamber whose bottom is sealed with parafilm, is filled with the blood-compound solution and placed on top of the flea chamber, so that the fleas can suck the blood. The blood chamber is heated to 37° C. whereas the flea chamber is kept at room temperature.
After 2 days mortality in % is determined. 100% means all the fleas have been killed; 0% means none of the fleas have been killed.

Compound	mortality at 500 g/ha [1]	pest or weed control at 32 µg/disc, 100 g/ha [2]	mortality at 20 ppm [3]	mortality at 100 g/ha [4]	pest or weed control at 1 µg/cm2 [5]	mortality at 500 g/ha [6]	mortality at 100 g/ha [7]	pest or weed control at 1 µg/cm2, 100 g/ha [8]	pest or weed control at 1 µg/cm2 [9]	efficacy (infertile eggs) [10]	mortality at 100 ppm [11]
C[C@H](NC(=O)c1cc(C(F)(F)F)cc(S(C)(=O)=O)c1)c1ncnn1-c1cnc(C(N)=O)cn1 [Example I-030]	90%	100%	100%	–	–	–	–	–	–	–	–
CCN(C)C(=O)c1cnc(-n2ncnc2[C@H](C)NC(=O)c2cc(OC(F)(F)F)cc(S(C)(=O)=O)c2)cn1 [Example I-018]	100%	100%	100%	100%	90%	100%	100%	100%	100%	–	–
C[C@H](NC(=O)c1cc(OC(F)(F)F)cc(S(C)(=O)=O)c1)c1ncnn1-c1cnc(C(=O)N(C)C2CC2)cn1 [Example I-004]	70%	100%	100%	90%	100%	100%	100%	100%	100%	100%	100%
